What all share (assay type): cell-based, human
Experiment [1] relates to neutrophils. The experiment in a line: Neutrophil capture on CAM-coated channels primed with 20 nM fMLP. To be noted: CAM coated channel primed with 20 nM fMLP. As to the method:
To identify whether the chemoattractant exposure has any significant effect on neutrophil capture from whole blood, the CAM coated channel was primed with 20 nM fMLP, and the cells were captured in a similar manner as described above. The effects of chemotactic priming of channels appeared significant from the statistical analysis (P<<0.05).

Experiment [2] deals with neutrophils. Put plainly: Neutrophil capture from whole blood on CAM-coated microfluidic channels. An excerpt: Three different adhesion molecules (P-selectin, E-selectin and fibronectin) were used to capture primary neutrophils from whole blood in the microfluidic channels. These substrates were chosen because of their significant role in neutrophil trafficking in vivo. To characterize the neutrophil capture efficiency, the cell capture chambers were coated with the adhesion molecules by flowing through solutions of six different concentrations of each adhesion molecule (concentrations shown in Table 1). Solutions were prepared by diluting the stock solution in sterile water or phosphate buffered saline (PBS) as advised by the vendors. These dilutions were loaded in the six cell capture chambers of the device and incubated for 1 h at room temperature. After one hour, P-selectin was aspirated and the flow chambers perfused with 2% HSA (Human Serum Albumin, Sigma-Aldrich Catalog # A5843) in Hank's buffer saline solution (HBSS, Sigma-Aldrich Catalog # H9269) to block non-specific binding sites and incubated for at least 15 minutes.
The PDMS device used to characterize cell capture consists of six distinct parallel channels each having an inlet and an outlet port (FIG. 2A). The channel dimensions of each segment of the capture device are 750×450×80 μm (L×W×H). The length of each segment was chosen such that it will conveniently fit in the field of view at 10× ocular and 10× objective magnification. 10 μL whole blood was mixed with 70 μL it heparinized HBSS solution and loaded in the cell chamber. Six 1 mL syringes (Part #309602, Becton, Dickinson and Company, Franklin Lakes, N.J.) were filled with HBSS containing 0.2% HSA. Most of the air trapped in the dead volume of the syringe was eliminated by tapping the inverted syringes. Syringes were then connected to tygon tubing approximately 10 to 12 inches long (Part # TGY-010-C, Small parts Inc.) through the needles (Part # NE-301PLC, Small parts Inc.). The syringes were placed on the syringe pump rack (PHD 2000, Harvard Apparatus, Holliston, Mass.), and the loose ends of the tubing were connected to the inlets of the device properly secured on the microscope stage. Smaller fragments of tubing were connected to the outlet ports. The pump was turned on at the rate of 4-5 μL/min, and the outlet tubings were clamped once the channels were filled with fluid, while leaving the pump running. This priming step was necessary to eliminate any trapped air pockets by continuing the inflow that pressurizes the air bubbles to diffuse through the porous PDMS matrix. Blood sample could be loaded as soon as all the air pockets were eliminated.
A 1.25 mm lancet (Part #366579, Becton Dickinson) was used to prick a finger of a subject, and 10 μL whole blood was drawn with a pipette. […]

The test system of experiment [3] is neutrophils. The experiment in a line: Further migration analysis on P-selectin functionalized migration chamber with IL-8 gradient. As to the method: The surface of the migration chamber of a device as described herein was functionalized with P-selectin by exposure to a 10 nM solution of P-selectin for 10 minutes, followed by Hanks buffer wash for 5 minutes. Capillary blood was collected from the tip of a finger using a lancet. A volume of 10 μL (equivalent of a small droplet) was collected in 10 μL heparin 2×, mixed well by repeated pipetting, and introduced into the device. After filling the main channel, a slow flow rate of the blood was established by raising the inlet tube at 4-5 cm above the level of the device.
After 5 minutes, the blood inlet was clamped, and buffer was introduced from one of the gradient generators that had Hanks buffer solution at both inlets. After 1 minute of washing all the red blood cells through the device, only leukocytes were left on the P selectin coated surface of the migration chamber. Based on observed morphological characteristics, most of the remaining captured cells appeared to be neutrophils. After 5-10 minutes of washing using a buffer, a gradient of IL-8 (from 0 to 12 nM over 400 μm distance) was rapidly established using the second gradient chamber. […]
The displacement of neutrophils in the direction of the gradient was also measured as a function of time.

Experiment [4] deals with neutrophils. The experiment in a line: Neutrophil migration assay in chemoattractant gradients (switching gradient device). As to conditions: for average displacement in the direction of the gradient: 20 nM/450 μm fMLP or 10 nM/450 μm IL-8 gradient; for Random motility coefficient (μ): initial 10 minutes of migration; for directional bias of migration profile (comparison): comparison between substrates / between chemoattractants. As to the method:
The gradient generating device used to study cell migration consists of two inlets, one outlet, and a cell loading port. In a similar manner as explained above, the device was primed after functionalizing the channel surface with adhesion molecules. Two syringes were prepared, one with only buffer containing 0.2% HSA while the other also containing the appropriate concentration of chemokine. Two chemoattractants, either recombinant human interleukin-8 (IL8, Catalog #208-IL, R&D Systems inc.) or N-formyl-methionyl-leucyl-phenylalanine (fMLP, Part # F3506, Sigma-Aldrich) were employed at 10 nM and 20 nM concentrations. For consistency, the two syringes were connected to the device such that chemokine gradient in the cell capture and migration chambers was always in the same orientation, from top (100%) to bottom (0%). After the device was primed, inlet ports were clamped, and the blood sample was loaded through the cell loading port as described in the following section.
A 1.25 mm lancet (Part #366579, Becton Dickinson) was used to prick a finger of a subject, and 10 μL whole blood was drawn with a pipette. Before withdrawing the blood, 70 μL of HBSS mixed with sodium heparin (Part #367871, Becton Dickinson) was injected into the open end of a loading needle using a pipette. The blood in the pipette was then directly mixed with the heparin solution inside the needle. A slight pressure was gradually applied to the open end of the needle using an index finger to push the blood sample through the tubing until a small drop of fluid appeared on the other end of the tubing. To avoid entrapment of air bubbles while connecting the tubing to the PDMS device, a drop of HBSS was always present in excess at the connecting ports of the device. The loose end of the sample tubing was held with forceps and carefully inserted in the PDMS port. Once a sealed connection was established, pressure was again applied to the loading needle to push samples through the cell capture and migration chamber. The inlet and outlet tubings were then clamped using binder clips for 5-10 minutes allowing cells to interact and bind with the glycoprotein molecules.
For the neutrophil capture characterization experiments, images for 7-10 sections (each 750 μm long, FIG. 2B) were acquired at 2 s interval using time lapse microscopy and at least 10 frames were captured. This was done to make sure that only adherent neutrophils were counted. An inverted Olympus microscope (Model # CKX41) and a CMOS color camera (Pixelink PLA742) were used to capture time lapse images in phase contrast mode. A 10× ocular and 10× objective magnification were used. The neutrophils captured in the chambers were counted manually in 7-10 distinct areas for each concentration. The average number of captured cells was calculated from three repeated experiments for each concentration and CAM. Captured time lapse images were converted to 8 bit and individual cells were tracked using Metamorph imaging software (Ver 4.1, Universal Imaging Corporation). Elapsed time and migration distance from the origin in the Y direction were derived for each cell and average displacements were calculated for the entire cell population in consideration. Migration curves representing the average distance traveled in the direction of increasing chemokine concentration against time were plotted and compared. It is notable that the slope of gradient along the flow path in the cell chamber gradually changes depending on the flow rates and the diffusivities of chemoattractants. Therefore, to maintain consistency, only the first upstream quarter of the cell chamber was considered for microscopic observation where the variations in gradient profile are minimal. […]

The mark [5] stands for this setting: 50 μg/mL E-selectin surface, first 30 minutes.
The mark [6] stands for this setting: 200 μg/mL fibronectin surface, 30 minutes.
Where [7] appears, read: substrate E-selectin, mean of about 15 cells.
The mark [8] stands for this setting: substrate Fibronectin, less than 10 cells.
The mark [9] stands for this setting: substrate P-selectin, mean of about 15 cells.

We go through five molecules from US8921122B2, “System and method for quantitative assessment of biological migration behavior” (The General Hospital Corporation, priority 2008, dated 2014).

fibronectin: in the experiment on neutrophils [1], the “cells captured on primed vs. unprimed surface” value is on record as “five times more cells”. Besides, the cells captured in the experiment with neutrophils [2] (coated surfaces at 200 μg/mL concentration of priming solution, whole blood) was 3-4 cells/mm^2.

As to “IL-8: recombinant human interleukin-8, chemoattractant (Catalog #208-IL, R&D Systems)”, the “neutrophil migration response to gradient” value in the experiment with neutrophils [3] (IL-8 gradient from 0 to 12 nM over 400 μm, P-selectin coated surface) is given as “sustained migration in the direction of the gradient”. Further, the “average displacement in the direction of the gradient” value is 70 μm with neutrophils [4] (setting [5]) and 35 μm with neutrophils [4] (setting [6]). For the same molecule, the figures for the “Random motility coefficient (μ)” value in the experiment with neutrophils [4] (setting [7]), in the experiment on neutrophils [4] (setting [8]) and with neutrophils [4] (setting [9]) were 33.92 μm^2/minute, 27.01 μm^2/minute and 14.89 μm^2/minute, respectively.

Take `CSCC[C@H](NC=O)C(=O)N[C@@H](CC(C)C)C(=O)N[C@@H](Cc1ccccc1)C(=O)O` [fMLP, N-formyl-methionyl-leucyl-phenylalanine, reference compound]: the “average displacement in the direction of the gradient” value in the experiment on neutrophils [4] (setting [5]) is recorded as 50 μm; with neutrophils [4] (setting [6]), “about 65 μm”. For the same molecule, the “directional bias of migration profile (comparison)” value with neutrophils [4] was “greater directional bias than IL8”. The figures for the “Random motility coefficient (μ)” value with neutrophils [4] (setting [7]), in the experiment on neutrophils [4] (setting [8]) and in the experiment on neutrophils [4] (setting [9]) were 23.64 μm^2/minute, 17.7 μm^2/minute and 8.07 μm^2/minute, respectively.

B1: P-selectin: Human recombinant P-selectin, cell adhesion molecule used to coat capture surface (R&D Systems ADP3-050) (protein, UniProt P16109 42-830, looked up)
P-selectin: WTYHYSTKAYSWNISRKYCQNRYTDLVAIQNKNEIDYLNKVLPYYSSYYWIGIRKNNKTWTWVGTKKALTNEAENWADNEPNNKRNNEDCVEIYIKSPSAPGKWNDEHCLKKKHALCYTASCQDMSCSKQGECLETIGNYTCSCYPGFYGPECEYVRECGELELPQHVLMNCSHPLGNFSFNSQCSFHCTDGYQVNGPSKLECLASGIWTNKPPQCLAAQCPPLKIPERGNMTCLHSAKAFQHQSSCSFSCEEGFALVGPEVVQCTASGVWTAPAPVCKAVQCQHLEAPSEGTMDCVHPLTAFAYGSSCKFECQPGYRVRGLDMLRCIDSGHWSAPLPTCEAISCEPLESPVHGSMDCSPSLRAFQYDTNCSFRCAEGFMLRGADIVRCDNLGQWTAPAPVCQALQCQDLPVPNEARVNCSHPFGAFRYQSVCSFTCNEGLLLVGASVLQCLATGNWNSVPPECQAIPCTPLLSPQNGTMTCVQPLGSSSYKSTCQFICDEGYSLSGPERLDCTRSGRWTDSPPMCEAIKCPELFAPEQGSLDCSDTRGEFNVGSTCHFSCDNGFKLEGPNNVECTTSGRWSATPPTCKGIASLPTPGVQCPALTTPGQGTMYCRHHPGTFGFNTTCYFGCNAGFTLIGDSTLSCRPSGQWTAVTPACRAVKCSELHVNKPIAMNCSNLWGNFSYGSICSFHCLEGQLLNGSAQTACQENGHWSTTVPTCQAGPLTIQEALTYFGGAVASTIGLIMGGTLLALLRKRFRQKDDGKCPLNPHSHLGTYGVFTNAAFDPSP
Take B1: in the experiment on neutrophils [3] (in the absence of IL-8), the “chemokinesis of neutrophils on functionalized substrate” value is “No significant chemokinesis”. Moreover, the “directional bias of migration profile (comparison)” value with neutrophils [4] is “more directionally biased and persistent”. The “cells captured on primed vs. unprimed surface” value in the experiment with neutrophils [1] is given as “not significant”. In addition, the “neutrophil activation by binding to capture surface (morphology)” value in the experiment on neutrophils [2] (before chemokine introduced, P-selectin functionalized surface (FIGS. 7A-7C)) is reported as “did not induce neutrophil activation”. Besides, the maximum capture efficiency result in the experiment on neutrophils [2] (surface coated with 25 μg/mL solution, whole blood) is “approximately 35 cells/mm^2”.

B2: E-selectin: Human recombinant E-selectin, cell adhesion molecule used to coat capture surface (R&D Systems ADP1-050) (protein, UniProt P16581 22-610, looked up)
E-selectin: WSYNTSTEAMTYDEASAYCQQRYTHLVAIQNKEEIEYLNSILSYSPSYYWIGIRKVNNVWVWVGTQKPLTEEAKNWAPGEPNNRQKDEDCVEIYIKREKDVGMWNDERCSKKKLALCYTAACTNTSCSGHGECVETINNYTCKCDPGFSGLKCEQIVNCTALESPEHGSLVCSHPLGNFSYNSSCSISCDRGYLPSSMETMQCMSSGEWSAPIPACNVVECDAVTNPANGFVECFQNPGSFPWNTTCTFDCEEGFELMGAQSLQCTSSGNWDNEKPTCKAVTCRAVRQPQNGSVRCSHSPAGEFTFKSSCNFTCEEGFMLQGPAQVECTTQGQWTQQIPVCEAFQCTALSNPERGYMNCLPSASGSFRYGSSCEFSCEQGFVLKGSKRLQCGPTGEWDNEKPTCEAVRCDAVHQPPKGLVRCAHSPIGEFTYKSSCAFSCEEGFELHGSTQLECTSQGQWTEEVPSCQVVKCSSLAVPGKINMSCSGEPVFGTVCKFACPEGWTLNGSAARTCGATGHWSGLLPTCEAPTESNIPLVAGLSAAGLSLLTLAPFLLWLRKCLRKAKKFVPASSCQSLESDGSYQKPSYIL
Consider B2, for which the “cells captured on primed vs. unprimed surface” value in the experiment with neutrophils [1] was “approximately twice as many cells”. In the experiment on neutrophils [2] (surface coated with 50 μg/mL solution, whole blood), this molecule displayed a maximum capture efficiency of approximately 15 cells/mm^2.
